US10836763B2, “5 to 7 membered heterocyclic amides as JAK inhibitors” (priority 2018, dated 2020)
Like-named read-outs stand apart in the source and are kept apart here.

Legend:
[1] = tested on: IL-13 induced pSTAT6 in lung tissue; assay: Murine model of IL-13 induced pSTAT6 induction in lung tissue; type: in vivo, mouse; conditions: Balb/c mice, 1 mg/mL, 50 μL oral aspiration; IL-13 challenge 4 hours after compound; lung homogenate
Description: (§1) Assay 3: Murine (Mouse) Model of IL-13 Induced pSTAT6 Induction in Lung Tissue
IL-13 binds to cell surface receptors activating members of the Janus family of kinases (JAK) which then phosphorylate STAT6 and subsequently activates further transcription pathways. In the described model, a dose of IL-13 was delivered locally into the lungs of mice to induce the phosphorylation of STAT6 (pSTAT6) which is then measured as the endpoint.
Activity in the model is evidenced by a decrease in the level of pSTAT6 present in the lungs of treated animals at 5 hours compared to the vehicle treated, IL-13 challenged control animals. The difference between the control animals which were vehicle-treated, IL-13 challenged and the control animals which were vehicle-treated, vehicle challenged dictated the 0% and 100% inhibitory effect, respectively, in any given experiment.

Lung S9 metabolism = type: in vitro ADME, human; conditions: for Compound Remaining at 60 min (%) / microsomal CLint at 1 µM: human lung S9, 1 μM compound, 1 mg/mL S9 protein, NADPH and PAPS; for microsomal CLint at 1 µM: lung S9 fraction, pH 7.4, read-out: Clearance; for Sulfate Appearance: qualitative, O-sulfate metabolite peak in human lung S9
Description: Assay 5: Lung S9 Metabolism […] Lung S9 fractions from human (lot 1410245) were purchased from XenoTech LLC (Lenexa, Kans.). NADPH (Sigma Aldrich, N1630) and 3-phosphoadenosine 5-phosphosulfate (PAPS) (Sigma Aldrich, A1651) were purchased from Sigma Aldrich (St. Louis, Mo.). Acetonitrile and water were obtained from VWR (Radnor, Pa.) and were of HPLC grade or better. Raloxifene and formic acid was purchased from Sigma Aldrich (St. Louis, Mo.). Lung S9 incubations were performed in a water bath at 37° C. in a 96-well polypropylene plate. […] All samples were centrifuged at 2250 g for 10 minutes at 5° C. Supernatant (50 μL) was taken from the centrifuged samples and diluted into 100 μL HPLC water containing internal standard. […] Mobile Phase A consisted of Water+0.2% formic acid and Mobile Phase B consisted of acetonitrile+0.2% formic acid. Peak integration was accomplished using Gubbs GMSU software (Gubbs Inc., Alpharetta, Ga.). For each sample, peak area ratios were calculated by dividing the analyte peak area by the internal standard peak area. […] Determination of sulfate metabolite formation was made qualitatively by observation of early-eluting peak in the parent ion channel which, based on historical internal data, corresponded to the O-sulfate metabolite of each parent compound.

[2] = Pharmacokinetics in plasma and lung in mouse; type: in vivo; conditions: BALB/c mice, single oral aspiration, 0.2 mg/mL, 50 μL; for Kp / AUC(0-t): mouse, other: oral aspiration into the trachea, 10 µg/mouse; for Kp: lung / plasma, read-out: Lung Tissue:Plasma AUC ratio; for AUC(0-t): plasma, read-out: Plasma AUC(0-24)
Description: Assay 6: Pharmacokinetics in Plasma and Lung in Mouse
Plasma and lung concentrations of test compounds and ratios thereof were determined in the following manner. BALB/c mice from Charles River Laboratories were used in the assay. Test compounds were individually formulated in 20% propylene glycol in pH 4 citrate buffer at a concentration of 0.2 mg/mL and 50 μL of the dosing solution was introduced into the trachea of a mouse by oral aspiration. At various time points (typically 0.167, 2, 6, 24 hr) post dosing, blood samples were removed via cardiac puncture and intact lungs were excised from the mice.

Tyk2 = Tyk2 (Homo sapiens (Human), UniProt P29597); assay: Biochemical JAK kinase assay (LanthaScreen), Tyk2
Description: (§2) Assay 1: Biochemical JAK Kinase Assays
(§3) A panel of four LanthaScreen JAK biochemical assays (JAK1, 2, 3 and Tyk2) were carried in a common kinase reaction buffer (50 mM HEPES, pH 7.5, 0.01% Brij-35, 10 mM MgCl2, and 1 mM EGTA). Recombinant GST-tagged JAK enzymes and a GFP-tagged STAT1 peptide substrate were obtained from Life Technologies.
(§4) Serially diluted compounds were pre-incubated with each of the four JAK enzymes and the substrate in white 384-well microplates (Corning) at ambient temperature for 1 h. ATP was subsequently added to initiate the kinase reactions in 10 μL total volume, with 1% DMSO. […] Kinase reactions were allowed to proceed for 1 hour at ambient temperature before a 10 μL preparation of EDTA (10 mM final concentration) and Tb-anti-pSTAT1 (pTyr701) antibody (Life Technologies, 2 nM final concentration) in TR-FRET dilution buffer (Life Technologies) was added. The plates were allowed to incubate at ambient temperature for 1 h before being read on the EnVision reader (Perkin Elmer). Emission ratio signals (520 nm/495 nm) were recorded and utilized to calculate the percent inhibition values based on DMSO and background controls.
(§5) For dose-response analysis, percent inhibition data were plotted vs. compound concentrations, and IC50 values were determined from a 4-parameter robust fit model with the Prism software (GraphPad Software). Results were expressed as pIC50 (negative logarithm of IC50) and subsequently converted to pKi (negative logarithm of dissociation constant, Ki) using the Cheng-Prusoff equation.

[3] = Lung and plasma drug concentration in the murine IL-13 pSTAT6 model; type: in vivo; conditions: mouse, other: oral aspiration, 50 µg/mouse; for Kp at 5 h: Balb/c, lung ng/g to plasma ng/mL at 5 hours, mice, oral aspiration, read-out: Lung to Plasma ratio at 5 hr; for concentration at 5 h: Balb/c mice, 1 mg/mL, 50 μL oral aspiration, 5 hr post dose
Description: as §1
Adult Balb/c mice from Harlan were used in the assay. […] Animals were placed in lateral recumbency post dose and monitored for full recovery from anesthesia before being returned to their home cage. Four hours later, animals were once again briefly anesthetized and challenged with either vehicle or IL-13 (0.03 μg total dose delivered, 50 μL total volume) via oral aspiration before being monitored for recovery from anesthesia and returned to their home cage. One hour after vehicle or IL-13 administration, whole blood and lungs were collected for both pSTAT6 detection in lung homogenates using a Perkin Elmer AlphaLISA® SureFire® Ultra™ HV p-STAT6 (Tyr641) assay kit and for total drug concentration analysis in both lung and plasma. Blood samples were centrifuged (Eppendorf centrifuge, 5804R) for 4 minutes at approximately 12,000 rpm at 4° C. to collect plasma. […] Plasma and lung levels of test compound were determined by LC-MS analysis against analytical standards constructed into a standard curve in the test matrix. A lung to plasma ratio was determined as the ratio of the lung concentration in ng/g to the plasma concentration in ng/mL at 5 hours.

JAK2 = JAK2 (Homo sapiens (Human), UniProt O60674); assay: Biochemical JAK kinase assay (LanthaScreen), JAK2
Description: as §2, §3, §4, §5

[4] = ATP at Km 10 μM, pIC50 converted with Cheng-Prusoff
[5] = lung, read-out: Lung Concentration (ng/g) at 5 hr
[6] = plasma, read-out: Plasma Concentration (ng/mL) at 5 hr
[7] = ATP at Km 3 μM, pIC50 converted with Cheng-Prusoff

Sequence of Tyk2 (P29597 whole entry): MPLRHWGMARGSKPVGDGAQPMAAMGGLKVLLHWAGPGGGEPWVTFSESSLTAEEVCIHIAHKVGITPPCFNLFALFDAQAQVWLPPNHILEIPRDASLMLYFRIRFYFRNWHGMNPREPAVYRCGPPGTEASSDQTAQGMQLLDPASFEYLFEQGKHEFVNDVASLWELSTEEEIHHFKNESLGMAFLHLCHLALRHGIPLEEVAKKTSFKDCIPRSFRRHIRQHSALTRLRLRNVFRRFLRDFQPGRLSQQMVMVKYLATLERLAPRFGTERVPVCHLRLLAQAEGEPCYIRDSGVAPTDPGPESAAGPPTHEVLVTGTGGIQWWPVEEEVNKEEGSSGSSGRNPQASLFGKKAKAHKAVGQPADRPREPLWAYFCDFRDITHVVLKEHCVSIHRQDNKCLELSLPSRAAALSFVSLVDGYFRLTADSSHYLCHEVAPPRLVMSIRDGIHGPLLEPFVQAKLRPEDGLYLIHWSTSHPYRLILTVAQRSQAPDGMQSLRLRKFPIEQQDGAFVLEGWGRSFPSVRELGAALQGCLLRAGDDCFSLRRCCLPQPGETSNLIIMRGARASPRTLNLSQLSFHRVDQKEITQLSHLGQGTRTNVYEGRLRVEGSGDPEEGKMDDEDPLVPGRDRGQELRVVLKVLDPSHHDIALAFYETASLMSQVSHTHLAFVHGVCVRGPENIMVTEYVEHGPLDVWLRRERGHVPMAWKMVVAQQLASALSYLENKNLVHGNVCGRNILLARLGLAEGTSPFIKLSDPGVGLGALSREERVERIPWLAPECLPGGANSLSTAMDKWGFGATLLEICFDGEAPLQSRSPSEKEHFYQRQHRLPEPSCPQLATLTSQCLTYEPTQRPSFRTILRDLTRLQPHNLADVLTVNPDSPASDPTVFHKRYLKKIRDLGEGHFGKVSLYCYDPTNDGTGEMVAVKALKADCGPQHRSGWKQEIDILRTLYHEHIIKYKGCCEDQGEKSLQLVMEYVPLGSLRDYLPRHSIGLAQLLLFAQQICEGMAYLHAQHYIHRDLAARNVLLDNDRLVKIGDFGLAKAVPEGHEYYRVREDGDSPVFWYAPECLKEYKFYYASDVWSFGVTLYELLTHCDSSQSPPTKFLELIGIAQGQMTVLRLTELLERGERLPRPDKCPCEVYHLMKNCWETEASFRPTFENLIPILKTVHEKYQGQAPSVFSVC
Sequence of JAK2 (O60674 whole entry): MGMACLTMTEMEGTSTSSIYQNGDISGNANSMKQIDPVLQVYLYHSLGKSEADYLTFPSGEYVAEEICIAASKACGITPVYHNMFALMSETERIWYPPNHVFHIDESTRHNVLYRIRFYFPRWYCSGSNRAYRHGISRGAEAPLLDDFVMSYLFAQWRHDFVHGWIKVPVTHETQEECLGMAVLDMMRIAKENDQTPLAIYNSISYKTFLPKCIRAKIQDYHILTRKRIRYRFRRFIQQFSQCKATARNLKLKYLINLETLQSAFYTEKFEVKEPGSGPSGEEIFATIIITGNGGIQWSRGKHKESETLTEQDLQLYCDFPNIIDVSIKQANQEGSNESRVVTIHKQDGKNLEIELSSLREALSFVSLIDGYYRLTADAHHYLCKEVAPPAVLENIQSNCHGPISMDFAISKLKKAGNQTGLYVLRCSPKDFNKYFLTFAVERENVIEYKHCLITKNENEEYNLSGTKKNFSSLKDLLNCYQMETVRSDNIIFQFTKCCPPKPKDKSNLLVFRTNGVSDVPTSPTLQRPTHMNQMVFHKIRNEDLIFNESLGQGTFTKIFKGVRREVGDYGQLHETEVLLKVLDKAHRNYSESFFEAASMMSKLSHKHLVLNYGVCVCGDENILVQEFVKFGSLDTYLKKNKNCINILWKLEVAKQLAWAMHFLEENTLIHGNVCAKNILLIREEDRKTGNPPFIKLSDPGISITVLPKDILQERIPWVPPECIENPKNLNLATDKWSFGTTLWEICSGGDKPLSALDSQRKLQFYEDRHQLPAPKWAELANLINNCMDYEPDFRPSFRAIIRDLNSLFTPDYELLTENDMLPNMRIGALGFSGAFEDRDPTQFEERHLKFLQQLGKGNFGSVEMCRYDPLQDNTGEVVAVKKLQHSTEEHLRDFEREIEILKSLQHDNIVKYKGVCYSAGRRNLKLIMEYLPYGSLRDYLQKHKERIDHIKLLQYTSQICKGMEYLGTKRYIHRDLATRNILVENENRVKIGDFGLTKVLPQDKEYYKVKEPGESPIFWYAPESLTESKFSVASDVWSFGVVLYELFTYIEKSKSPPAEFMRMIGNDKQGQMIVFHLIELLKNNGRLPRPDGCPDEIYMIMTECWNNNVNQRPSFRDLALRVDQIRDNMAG

| SMILES | pSTAT6 inhibition at 5 hours [1] | Compound Remaining at 60 min (%) (Lung S9 metabolism) | microsomal CLint at 1 µM (Lung S9 metabolism) | Sulfate Appearance (Lung S9 metabolism) | Lung Tissue AUC(0-24) [2] | Kp [2] | AUC(0-t) [2] | Tyk2 pKi (Tyk2; [4]) | Kp at 5 h [3] | concentration at 5 h [3, 5] | concentration at 5 h [3, 6] | JAK2 pKi (JAK2; [7]) | Tyk2 pKi (Tyk2) | JAK2 pKi (JAK2) |
| --- | --- | --- | --- | --- | --- | --- | --- | --- | --- | --- | --- | --- | --- | --- |
| CCCN1Cc2[nH]c(-c3n[nH]c4cc(-c5ccc(O)cc5CC)ccc34)nc2C[C@H]1C(=O)N1CCN(CCO)CC1 [Compound 1, (S)-(2-(6-(2-ethyl-4-hydroxyphenyl)-1H-indazol-3-yl)-5-propyl-4,5,6,7-tetrahydro-3H-imidazo[4,5-c]pyridin-6-yl)(4-(2-hydroxyethyl)piperazin-1-yl)methanone] | 67% | 78% | 4.2 µL/min/mg | Yes | 64.6 µg·h/g | 111 | 581 ng·h/mL | 9.0 | 1260 | 13000 ± 5720 ng/g | 10.3 ± 3.9 ng/mL | 10.3 | – | – |
| CCCN1Cc2[nH]c(-c3n[nH]c4cc(-c5ccc(O)cc5CC)ccc34)nc2C[C@H]1C(=O)N1C[C@@H]2C[C@H]1CN2C [Compound 2, ((S)-2-(6-(2-ethyl-4-hydroxyphenyl)-1H-indazol-3-yl)-5-propyl-4,5,6,7-tetrahydro-3H-imidazo[4,5-c]pyridin-6-yl)((1S,4S)-5-methyl-2,5-diazabicyclo[2.2.1]heptan-2-yl)methanone] | 72% | 81% | 3.5 µL/min/mg | Yes | – | – | – | 8.9 | 1340 | 23400 ± 12500 ng/g | 17.5 ± 25 ng/mL | 10.2 | – | – |
| CCc1cc(O)ccc1-c1ccc2c(-c3nc4c([nH]3)CN(C(C)C)[C@H](C(=O)N3CCCN(C)CC3)C4)n[nH]c2c1 [Compound 4, (S)-(2-(6-(2-ethyl-4-hydroxyphenyl)-1H-indazol-3-yl)-5-isopropyl-4,5,6,7-tetrahydro-3H-imidazo[4,5-c]pyridin-6-yl)(4-methyl-1,4-diazepan-1-yl)methanone] | 67% | 88% | 2.1 µL/min/mg | Yes | – | – | – | – | 788 | 17400 ± 6620 ng/g | 22 ± 23 ng/mL | – | 9.0 | 10.4 |
| CCc1cc(O)ccc1-c1ccc2c(-c3nc4c([nH]3)CN(C)[C@H](C(=O)N3CCN(CCO)C[C@H]3C)C4)n[nH]c2c1 [Compound 5, ((S)-2-(6-(2-ethyl-4-hydroxyphenyl)-1H-indazol-3-yl)-5-methyl-4,5,6,7-tetrahydro-3H-imidazo[4,5-c]pyridin-6-yl)((R)-4-(2-hydroxyethyl)-2-methylpiperazin-1-yl)methanone] | 73% | 80% | 3.7 µL/min/mg | Yes | 29.9 µg·h/g | 49.9 | 599 ng·h/mL | – | 418 | 5440 ± 1860 ng/g | 13 ± 3.7 ng/mL | – | 9.2 | 10.5 |
| CCc1cc(O)ccc1-c1ccc2c(-c3nc4c([nH]3)CN(C(C)C)[C@H](C(=O)N3CC[C@H](N(C)C)C3)C4)n[nH]c2c1 [Compound 6, ((S)-3-(dimethylamino)pyrrolidin-1-yl)((S)-2-(6-(2-ethyl-4-hydroxyphenyl)-1H-indazol-3-yl)-5-isopropyl-4,5,6,7-tetrahydro-3H-imidazo[4,5-c]pyridin-6-yl)methanone] | 37% | 82% | 3.4 µL/min/mg | Yes | – | – | – | – | 1030 | 11600 ± 4680 ng/g | 11.3 ± 5.7 ng/mL | – | 9.0 | 10.4 |
